# Assay results reported in article PMC12700550, “DLL4^+ neutrophils promote Notch1-mediated endothelial PANoptosis to exacerbate acute lung injury in sepsis” (The Journal of Clinical Investigation, 2025).
# Where “and” joins values, the source holds several entries; their conditions need not be identical. Identical values can stand only once.
# Legend:
# Type in all cases: in vivo, mouse
# c-GSDMD = experiment: c/t GSDMD in lungs of CLP mice, Western blot; settings: 10 mg/kg NDI, 20 h; for lung c/t GSDMD (Figure 5D): individual mice, 10 mg/kg
# Method: Sepsis was induced in mice by cecal ligation and puncture (CLP) as described previously ([45], [46]). Mice were anesthetized with isoflurane to a surgical plane and placed in a supine position. CLP was performed through a midline laparotomy. The abdomen was shaved and disinfected. Through a 2 cm midline incision, the cecum was exposed and then ligated with a 4-0 silk suture 1 cm proximal from the distal cecal extremity. For 20-hour CLP experiments, the cecum was punctured twice with a 22-gauge needle. A small amount of cecal content was extruded through both holes, and the ligated cecum was returned to the peritoneal cavity. The wound was closed in layers. For 10-day sepsis survival studies, the cecum was punctured once with a 22-gauge needle. A small amount of cecal content was extruded. Mice were allocated to the vehicle and adoptive transfer of DLL4^+ neutrophils or DLL4^– neutrophils groups. Adoptive transfer mice received a retro-orbital injection of 1 × 10^6 cells per mouse DLL4^+ neutrophils or DLL4^– neutrophils in […] phosphate-buffered saline (PBS) immediately after abdominal closure in both the 20-hour experiments and the survival study. Vehicle groups received an equivalent volume of PBS, while treatment groups received NDI 10 mg/kg in […] PBS via retro-orbital injection after CLP. This dose was chosen primarily on the basis of our laboratory’s prior experience, we have consistently used this dose in mouse CLP models with reproducible efficacy and without observable toxicity ([39], [44]). Sham-operated animals underwent a laparotomy without CLP. After closure, the mice received a subcutaneous injection of 0.5 mL of normal saline to overcome surgery-induced dehydration. […]
# PVECs and lung tissue were collected in previous steps. Whole-cell proteins were extracted, and the protein concentration was measured using an ABC protein assay kit (catalog 5000002, Bio-Rad). […] Bands were detected using an Odyssey FC Dual-Mode Imaging system 2800 (LI-COR).
# C57BL/6 mice, CLP sepsis = experiment: Serum aspartate aminotransferase (AST), CLP mice; set-up: serum AST (Figure 6B): unit not given here; settings: 20 h; for serum AST (Figure 6B): 10 mg/kg NDI, individual mice
# Method: Sepsis was induced in mice by cecal ligation and puncture (CLP) as described previously ([45], [46]). Mice were anesthetized with isoflurane to a surgical plane and placed in a supine position. CLP was performed through a midline laparotomy. The abdomen was shaved and disinfected. Through a 2 cm midline incision, the cecum was exposed and then ligated with a 4-0 silk suture 1 cm proximal from the distal cecal extremity. […] A small amount of cecal content was extruded through both holes, and the ligated cecum was returned to the peritoneal cavity. The wound was closed in layers. […] A small amount of cecal content was extruded. […] Vehicle groups received an equivalent volume of PBS, while treatment groups received NDI 10 mg/kg in […] PBS via retro-orbital injection after CLP. This dose was chosen primarily on the basis of our laboratory’s prior experience, we have consistently used this dose in mouse CLP models with reproducible efficacy and without observable toxicity ([39], [44]). Sham-operated animals underwent a laparotomy without CLP. After closure, the mice received a subcutaneous injection of 0.5 mL of normal saline to overcome surgery-induced dehydration. […] All mice were subcutaneously injected with a single dose of 0.1 mg/kg buprenorphine after CLP. Serum levels of alanine aminotransferase, aspartate aminotransferase, and lactate dehydrogenase were determined using specific colorimetric enzymatic assays (Pointe Scientific Inc.) according to the manufacturer’s instructions.
# TNF-α = experiment: Serum TNF-α, CLP mice, ELISA; settings: DLL4^+ neutrophil-injected CLP mice, 10 mg/kg, 20 h
# Method: Sepsis was induced in mice by cecal ligation and puncture (CLP) as described previously ([45], [46]). Mice were anesthetized with isoflurane to a surgical plane and placed in a supine position. CLP was performed through a midline laparotomy. The abdomen was shaved and disinfected. Through a 2 cm midline incision, the cecum was exposed and then ligated with a 4-0 silk suture 1 cm proximal from the distal cecal extremity. For 20-hour CLP experiments, the cecum was punctured twice with a 22-gauge needle. A small amount of cecal content was extruded through both holes, and the ligated cecum was returned to the peritoneal cavity. The wound was closed in layers. For 10-day sepsis survival studies, the cecum was punctured once with a 22-gauge needle. A small amount of cecal content was extruded. Mice were allocated to the vehicle and adoptive transfer of DLL4^+ neutrophils or DLL4^– neutrophils groups. […]
# Blood was collected by heart puncture and centrifuged at 1,500g and 4°C for 10 minutes, and the plasma was separated to assess cytokine levels using enzyme-linked immunosorbent assay (ELISA) kits (BD Biosciences). The plasma TNF-α (catalog 558534) and IL-6 (catalog 555240) levels were measured by ELISA.
sequence,measurement,setting,value
ECAGSPCHNGGTCEDGI [NDI],lung c/t GSDMD (Figure 5D),c-GSDMD; DLL4^+ neutrophils + CLP,2.146 and 1.894 and 1.978 and 1.095 and 1.287 and 1.8342
same,effect on lung c-GSDMD,c-GSDMD; DLL4^+ neutrophils/sepsis,attenuated the expression/activation
same,lung c/t GSDMD (Figure 5D),c-GSDMD; DLL4^– neutrophils + CLP,1.599 and 0.7489 and 0.6289 and 1.139 and 1.05
same,effect on serum AST,"C57BL/6 mice, CLP sepsis; DLL4^+ neutrophil-injected CLP mice, 10 mg/kg",significantly reduced the serum levels of hepatic and cell injury markers and proinflammatory cytokines
same,serum AST (Figure 6B),"C57BL/6 mice, CLP sepsis; DLL4^+ neutrophils + CLP",63.648 and 54.808 and 59.67 and 72.046 and 53.04 and 50.83 and 58.786 and 52.156 and 37.57 and 64.974 and 46.852 and 66.3 and 46.41 and 34.918 and 42.432 and 51.272
same,serum AST (Figure 6B),"C57BL/6 mice, CLP sepsis; DLL4^– neutrophils + CLP",66.3 and 67.184 and 102.102 and 72.046 and 55.25 and 53.482 and 43.758 and 50.83
same,effect on serum TNF-α,TNF-α,significantly reduced the serum levels of hepatic and cell injury markers and proinflammatory cytokines
